The results in this text go back to patent US9062118B2 (priority 2006, dated 2015).

The target of this assay is adult mouse muscle nAChR subtype (α1β1εδ) (Mus musculus, UniProt P02716+P04756+P20782). Kind of assay: cell-based.

The structures appear in SMILES notation. Bridge positions count the residues as written; N and C are the ends. Peptide text beside a SMILES is read from it.

Chain of adult mouse muscle nAChR subtype (α1β1εδ) (P02716 whole entry, looked up): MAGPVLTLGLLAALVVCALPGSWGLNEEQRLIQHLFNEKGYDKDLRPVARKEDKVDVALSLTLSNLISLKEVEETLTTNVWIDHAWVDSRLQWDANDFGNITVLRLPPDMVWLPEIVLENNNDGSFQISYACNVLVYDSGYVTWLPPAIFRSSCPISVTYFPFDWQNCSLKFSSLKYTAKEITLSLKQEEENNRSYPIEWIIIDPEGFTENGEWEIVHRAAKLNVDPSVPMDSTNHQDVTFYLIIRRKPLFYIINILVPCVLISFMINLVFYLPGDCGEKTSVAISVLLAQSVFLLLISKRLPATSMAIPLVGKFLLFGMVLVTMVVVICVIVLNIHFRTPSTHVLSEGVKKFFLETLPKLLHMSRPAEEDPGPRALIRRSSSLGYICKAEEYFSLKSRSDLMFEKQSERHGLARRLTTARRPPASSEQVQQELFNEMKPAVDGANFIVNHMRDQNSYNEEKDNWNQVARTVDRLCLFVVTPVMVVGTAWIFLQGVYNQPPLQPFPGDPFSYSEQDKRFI
Chain of adult mouse muscle nAChR subtype (α1β1εδ) (P04756 whole entry, looked up): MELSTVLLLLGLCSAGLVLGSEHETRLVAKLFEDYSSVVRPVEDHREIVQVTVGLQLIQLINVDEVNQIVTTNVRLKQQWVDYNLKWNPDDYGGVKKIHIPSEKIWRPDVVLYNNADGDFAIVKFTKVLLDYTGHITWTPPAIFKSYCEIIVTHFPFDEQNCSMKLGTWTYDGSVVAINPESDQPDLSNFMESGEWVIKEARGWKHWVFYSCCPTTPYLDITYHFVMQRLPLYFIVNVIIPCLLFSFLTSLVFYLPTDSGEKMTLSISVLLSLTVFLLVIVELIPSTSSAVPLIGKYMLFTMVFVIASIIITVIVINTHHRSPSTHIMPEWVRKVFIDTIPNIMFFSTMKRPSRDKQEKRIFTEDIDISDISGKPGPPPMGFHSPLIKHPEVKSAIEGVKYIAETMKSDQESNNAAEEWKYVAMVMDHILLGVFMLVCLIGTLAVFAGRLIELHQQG
Chain of adult mouse muscle nAChR subtype (α1β1εδ) (P20782 whole entry, looked up): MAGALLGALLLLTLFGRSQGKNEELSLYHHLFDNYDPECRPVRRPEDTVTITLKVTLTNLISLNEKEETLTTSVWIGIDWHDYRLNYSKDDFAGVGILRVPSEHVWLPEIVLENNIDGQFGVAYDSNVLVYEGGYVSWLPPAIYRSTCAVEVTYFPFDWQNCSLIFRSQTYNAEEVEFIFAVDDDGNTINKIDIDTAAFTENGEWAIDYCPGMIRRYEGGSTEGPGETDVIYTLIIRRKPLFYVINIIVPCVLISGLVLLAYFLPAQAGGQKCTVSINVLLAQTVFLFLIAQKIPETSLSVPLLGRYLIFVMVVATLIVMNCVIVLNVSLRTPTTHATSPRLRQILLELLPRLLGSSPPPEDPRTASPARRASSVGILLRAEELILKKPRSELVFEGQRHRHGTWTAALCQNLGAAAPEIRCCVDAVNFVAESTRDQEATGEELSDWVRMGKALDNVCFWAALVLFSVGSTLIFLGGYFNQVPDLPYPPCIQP

Regarding `CC[C@H](C)[C@@H]1NC(=O)CNC(=O)[C@H](C)NC(=O)[C@H](CCCNC(=N)N)NC(=O)[C@@H]2CSSC[C@@H](C(=O)N[C@@H](CCCNC(=N)N)C(N)=O)NC(=O)[C@H](Cc3c[nH]cn3)NC(=O)[C@H](CSSC[C@H](NC(=O)[C@@H](NC(=O)[C@H](CCCNC(=N)N)NC(=O)[C@@H]3CCCN3C(=O)[C@H](CCCNC(=N)N)NC(=O)[C@@H]3CCCN3C(=O)[C@@H](N)Cc3ccccc3)[C@@H](C)CC)C(=O)N[C@@H](CC(N)=O)C(=O)N[C@@H](CC(C)C)C(=O)N[C@@H](C)C(=O)N2)NC(=O)[C@H](Cc2ccccc2)NC(=O)[C@@H]2CCCN2C(=O)[C@H](Cc2ccc(O)cc2)NC(=O)[C@H](CCCCN)NC(=O)[C@H](Cc2c[nH]cn2)NC(=O)CNC1=O` [pl14a] (H-FPRPRICNLACRAGIGHKYPFCHCR-NH2; disulfide 7-22, 11-24), it took 507 nM to reach half-maximal inhibition (IC50).

A word on the IC50: it is the concentration that gives 50% inhibition. Read a high IC50 as weaker potency.
